This is an account of results in patent publication US20160106837A1, “COMBINATION OF CD37 ANTIBODIES WITH CHLORAMBUCIL” (BOEHRINGER INGELHEIM INTERNATIONAL GMBH, priority 2013, published 2016).

“Also recorded” adds a separate entry of the source.

By TGI is commonly meant the reduction of tumour growth relative to the control group.

In series [1] the test system is human follicular lymphoma DOHH2. Kind of series: Subcutaneous xenograft model of the human follicular lymphoma DOHH2 in C.B-17 scid mice: tumor growth. It counts as in vivo. (Xenograft models place foreign cells or tissue in a host animal.)
Series [2] can be described thus: Body weight / tolerability in DOHH2 tumor-bearing C.B-17 scid mice.

Take `O=C(O)CCCc1ccc(N(CCCl)CCCl)cc1` [chlorambucil, 4-[Bis(2-chloroethy)amino]benzenebutaonic acid]: in series [1] (day 16), the “CR (complete tumor regression)” value is on record as 0 x/7, the “PR (partial tumor regression)” value came out at 0 x/7 and the “tumor regression (in words)” value is “tumor regressions were not observed”. The molecule also had an inhibition of tumour growth (TGI) in series [1] (median, day 16, A2 10 mg/kg i.p. d1,5,8,12,15, chlorambucil 6 mg/kg i.p. d2,6) of 71%. The “tumor growth inhibition (in words)” value in series [1] (vs controls) is “moderate but significant inhibition of tumor growth; also recorded: moderate but significant efficacy”. The “body weight loss during first week” value in series [2] (after one week / first 7 days of the study) is reported as 13.4%. In addition, in series [2] (median body weight change, day 16), the Weight change was −5.4%.
